Data as given in ChEMBL document CHEMBL1201862, “PubChem BioAssay data set” (2004).
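48-hour exposure; five concentrations; linearly interpolated endpoints. GI50 marks 50% less growth.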 Activity calls are given as the source filed them. Rule as the data show it: active = GI50 up to about 1.1 µM and inactive = higher.

Experiments:
Test in all cases: growth of human tumour cells (NCI), 48 h
[1] = system: COLO 205
[2] = system: PC-3
[3] = system: ACHN
[4] = system: RXF 393
[5] = system: Malme-3M
[6] = system: UACC-257
[7] = system: SN12C
[8] = system: NCI-H522
[9] = system: MDA-N
[10] = system: SW-620
[11] = system: SK-MEL-28
[12] = system: LOX IMVI
[13] = system: UO-31
[14] = system: 786-0
[15] = system: MDA-MB-231
[16] = system: U-251
[17] = system: OVCAR-3
[18] = system: SK-MEL-5
[19] = system: SF-295
[20] = system: MDA-MB-435

Measured: GI50

COC(=O)[C@@H]1C[C@H]2OC(=O)CC[C@]2(C)O[C@H]1[C@H]1O[C@@](C)(O)CCC[C@H]1C
inactive: [1] > 50 µM | [2] > 50 µM | [3] > 50 µM | [4] > 50 µM | [5] > 50 µM | [6] > 50 µM | [7] > 50 µM | [8] 28.6 µM | [9] > 50 µM | [10] > 50 µM | [11] > 50 µM | [12] 6.07 µM | [13] > 50 µM | [14] > 50 µM | [15] > 50 µM | [16] > 50 µM | [17] > 50 µM | [18] > 50 µM | [19] > 50 µM | [20] > 50 µM

CC1=NN=C(N)NC1=CC(Sc1ccc(Cl)cc1)c1c(O)ccc2ccccc12 (centres undefined)
inactive: [1] 16.9 µM | [2] 16.1 µM | [3] 5.16 µM | [4] 4.75 µM | [5] 3.88 µM | [6] 20.9 µM | [7] 19 µM | [8] 15.5 µM | [9] 28.2 µM | [10] 24.8 µM | [11] 14 µM | [12] 19.3 µM | [13] 6.07 µM | [14] 25.5 µM | [15] 21.1 µM | [16] 18.3 µM | [18] 8.07 µM | [19] 4.21 µM | [20] 19.6 µM

Nc1c(C(=O)O)c2ccc([N+](=O)[O-])cc2c(=O)n1-c1nc2ccccc2s1
inactive: [1] > 100 µM | [2] > 100 µM | [3] > 100 µM | [4] > 100 µM | [5] > 100 µM | [7] > 100 µM | [8] > 100 µM | [9] > 100 µM | [10] > 100 µM | [11] > 100 µM | [12] > 100 µM | [13] > 100 µM | [14] > 100 µM | [15] > 100 µM | [16] > 100 µM | [17] > 100 µM | [18] > 100 µM | [19] > 100 µM | [20] > 100 µM

CCOC(=O)Cc1c(C)c2cc(C(=O)c3ccccc3)c(O)cc2oc1=O
inactive: [1] 18.5 µM | [2] 24.8 µM | [3] 29.3 µM | [4] 41.1 µM | [5] 25.4 µM | [6] 28.7 µM | [7] 31.6 µM | [8] 27 µM | [9] 33.3 µM | [10] 45.1 µM | [11] 34.2 µM | [12] 30.3 µM | [14] 39.8 µM | [15] 23.8 µM | [16] 20.8 µM | [17] 17.8 µM | [18] 17.6 µM | [19] 34.8 µM | [20] 33 µM

CN1CCN(c2ccncc2S(=O)(=O)N2CCN(C)CC2)CC1
inactive: [1] > 100 µM | [2] > 100 µM | [3] > 100 µM | [4] > 100 µM | [5] > 100 µM | [6] > 100 µM | [8] > 100 µM | [9] > 100 µM | [10] > 100 µM | [11] > 100 µM | [12] > 100 µM | [13] > 100 µM | [14] > 100 µM | [15] > 100 µM | [16] > 100 µM | [17] > 100 µM | [18] > 100 µM | [19] > 100 µM | [20] > 100 µM

O=[N+]([O-])c1ccc(/C=N/Nc2nc3ccccc3[nH]2)o1
inactive: [1] 10.6 µM | [2] 15.3 µM | [4] 14.6 µM | [5] 13.8 µM | [6] 21.2 µM | [7] 15.7 µM | [8] 13.3 µM | [9] 7.57 µM | [10] 10.8 µM | [11] 8.91 µM | [12] 13.9 µM | [13] 18.7 µM | [14] 24.9 µM | [15] 32.4 µM | [16] 34 µM | [17] 11.1 µM | [18] 4.14 µM | [19] 16 µM | [20] 4.45 µM

Nc1nonc1-c1noc(-c2nonc2N)[n+]1[O-]
inactive: [1] > 10 µM | [2] 69.7 µM | [3] 33.8 µM | [4] 24.9 µM | [5] 20.4 µM | [6] > 100 µM | [7] > 100 µM | [8] 13.1 µM | [9] 69.7 µM | [10] 27 µM | [11] > 100 µM | [12] 63.2 µM | [13] 42.9 µM | [14] 37.1 µM | [15] > 100 µM | [16] > 100 µM | [18] 32.1 µM | [19] > 100 µM | [20] 57 µM
